For orientation: IC50 means the concentration that inhibits the measured activity by half.

Consider three molecules from patent US20250049828A1, “PHARMACEUTICAL COMPOSITION FOR TREATING TUMORS AND USE” (INXMED (NANJING) CO., LTD., priority 2021, published 2025).

The subject of data set [1] is ovarian cancer cells SK-OV-3. Nature of the data set: CCK8 cell viability / cell killing curve. In kind it is cell-based. The settings on record: Homo sapiens, SK-OV-3, drug alone, 72 hours. As to the method: A 96-well cell plate was plated with 5000 SK-OV-3 cells/well. After 24 hours, a drug with a maximum concentration of 20 μM was added and diluted with a 3-fold gradient dilution to set a total of 9 concentrations, with the lowest concentration being […]. After the drug and cells were co-incubated for 72 hours, 10 μL of CCK8 solution was added to each well, and the plate was incubated in a 37° C. and 5% carbon dioxide incubator for 2 hours. Then, a microplate reader was used for reading with a set absorbance wavelength of 450 nm. The values read were compared with the DMSO control group and plotted using Graphpad 8.0.
A 96-well cell plate was plated with 5000 SK-OV-3 cells/well. […] Adriamycin at these dosages was combined with 3 μM IN10018. After 72 hours of co-culture with the cells, cell viability was detected using CCK8 method. Graphpad 8.0 was used for plotting.
A 96-well cell plate was plated with 5000 SK-OV-3 cells/well. […] Adriamycin at these dosages was combined with 3 μM Defactinib. After 72 hours of co-culture with the cells, cell viability was detected using CCK8 method. Graphpad 8.0 was used for plotting.

A further data set deals with CT26 cells. Nature of the data set: Microscope observation and flow cytometry of CRT and Annexin-V positive cells. In kind it is cell-based, mouse. The conditions noted are these: IN10018 5 μM, Adriamycin 1 μM, alone or combined, 48 hours. On the procedure:
Then the cells were collected for flow analysis.
The culture conditions were 37° C. and 5% CO2.
On the technique in general: Flow cytometry measures light scatter and fluorescence of single cells or particles in a stream.

A further data set has as its system IFN-γ. Nature of the data set: ELISA of IFN-γ in serum of CT26 tumor-bearing mice. The class given is in vivo, BALB/c mice. The conditions noted are these: IN10018 25 mg/kg PO QD × 8, Doxil 3 mg/kg i.v. QW × 2; blood 24 hours after the second administration of Doxil; n=5. As to the method:
(§1) BALB/c mice (from Shanghai Lingchang Biotechnology Co., Ltd.) were used to construct the CT26 tumor cell model. When the tumor volume reached about 40 to 60 mm^3, the mice were randomly divided into groups according to the tumor volume and administered.
(§2) 24 hours after the second administration of Doxil, blood was collected from the orbit of four groups of animals. The blood was placed in a collection tube without anticoagulant and left standing to naturally coagulate at room temperature for 30 to 60 minutes. When the blood coagulated, the blood was centrifuged at 1000 rpm, 4° C. for 10 minutes. The upper serum was transferred to a new collection tube and stored in a −80° C. freezer.
For orientation: An ELISA detects its analyte on a solid surface through an enzyme-linked reagent.

Another data set has as its system Granzyme B. Nature of the data set: ELISA of Granzyme B in serum of CT26 tumor-bearing mice. The class given is in vivo, BALB/c mice. The conditions noted are these: IN10018 25 mg/kg PO QD × 8, Doxil 3 mg/kg i.v. QW × 2; blood 24 hours after the second administration of Doxil; n=5. On the procedure: as §1, §2
Data set [2] concerns FAK and phosphorylated FAKY397. Nature of the data set: FAK knockdown efficiency by western blot. The class given is cell-based. The settings on record: 50 nM FAKsiRNA, SK-OV-3 cells, western blot 72 hours after transfection. On the procedure:
SK-OV-3 cells were used as the research object, and Lipofectamine 3000 was used to transfect the cells with 50 nM FAKsiRNA. After the assay, proteins were collected to detect the expression of FAK and phosphorylated FAKY397.
Lipofectamine 3000 was used as a transfection reagent. Downstream combination and ICD biomarker assays can be performed 24 hours after the transfection. 72 hours after the transfection, SK-OV-3 cell proteins were collected, and western blot was performed to detect the amount of phosphorylated FAKY397, FAK and alpha tubulin.
In general terms: In western blotting, separated proteins are transferred to a membrane and probed.

In data set [1], `COc1cccc2c1C(=O)c1c(O)c3c(c(O)c1C2=O)C[C@@](O)(C(=O)CO)C[C@@H]3O[C@H]1C[C@H](N)[C@H](O)[C@H](C)O1` [Adriamycin, doxorubicin, reference compound] displayed an IC50 of 0.3 µM. Also, in the data set on CT26 cells, the “cell-killing effect observed under a microscope” value is listed as “had cell-killing effect”.

`COc1cc(C(=O)NC2CCN(C)CC2)c(F)cc1Nc1ncc(C(F)(F)F)c(Oc2cccc3c2C(=O)N(C)C3)n1` [IN10018] had an IC50 in data set [1] of 10 µM. Besides, the “cell-killing effect observed under a microscope” value in the data set with CT26 cells is given as “in good condition”. Further, the “IFN-γ protein concentration in serum” value in the data set with IFN-γ was determined as 367.24 ± 7.34 pg/mL. Also, in the data set on Granzyme B, the “Granzyme B protein concentration in serum” value was 50.48 ± 53.08 pg/mL.

Turning to “FAKsiRNA: small interfering RNA for FAK knockdown, GenePharma; GGGCAUCAUUCAGAAGAUATT / UAUCUUCUGAAUGAUGCCCTT (chemistry not given here)”, the “knockdown effect on phosphorylated FAKY397 and total FAK proteins” value in data set [2] is on record as “significant knockdown effect”.
